The target in assay [1] is T1, hTRPV3 single channel (Homo sapiens, UniProt Q8NET8).
T1 construct: expressed in transfected cells; host or cells: HEK293
T1 sequence (Q8NET8 1-790): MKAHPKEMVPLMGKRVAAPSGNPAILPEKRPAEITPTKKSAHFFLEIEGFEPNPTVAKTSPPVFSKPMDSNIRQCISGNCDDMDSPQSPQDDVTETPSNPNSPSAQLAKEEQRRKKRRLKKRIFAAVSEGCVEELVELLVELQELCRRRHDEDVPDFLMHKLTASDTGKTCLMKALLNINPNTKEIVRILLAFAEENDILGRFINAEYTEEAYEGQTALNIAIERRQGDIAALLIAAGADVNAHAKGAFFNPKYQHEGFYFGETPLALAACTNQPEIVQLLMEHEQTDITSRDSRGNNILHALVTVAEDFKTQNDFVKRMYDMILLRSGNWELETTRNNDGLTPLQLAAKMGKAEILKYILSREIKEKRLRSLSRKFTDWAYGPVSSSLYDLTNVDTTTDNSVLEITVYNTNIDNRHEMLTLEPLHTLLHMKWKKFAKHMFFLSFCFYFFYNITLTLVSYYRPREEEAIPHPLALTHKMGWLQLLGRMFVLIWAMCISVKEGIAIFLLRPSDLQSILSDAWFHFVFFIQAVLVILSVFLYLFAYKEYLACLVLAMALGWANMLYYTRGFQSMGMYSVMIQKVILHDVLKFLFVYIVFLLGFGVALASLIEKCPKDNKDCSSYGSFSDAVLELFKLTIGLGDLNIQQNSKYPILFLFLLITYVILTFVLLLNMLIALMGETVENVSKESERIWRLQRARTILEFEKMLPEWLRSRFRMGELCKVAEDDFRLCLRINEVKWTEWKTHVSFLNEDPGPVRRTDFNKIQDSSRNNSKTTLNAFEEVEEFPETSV
Briefly: Inside-out single-channel recordings of TRPV3 in HEK293 cells. The class given is cell-based. The note with it: agonist 2-APB 30 μmol/L alone, −60 mV. From the text: For single-channel recordings, borosilicate glass pipettes were pulled from borosilicate glass capillaries and fire-polished to the resistance between 6 and 10 MΩ using a DMZ universal electrode puller (Zeitz-Instruments, GmbH). For inside-out single-channel recordings, both pipette and external solutions contained (in mM): 130 NaCl, three HEPES, and 0.2 EDTA (pH = 7.4). Membrane potential was clamped at −60 mV and currents were digitized at 10 kHz and filtered at 2 kHz.

For assay [2], the system named is TRPA1. Further details: method as in PMID 30377214. To be noted: ref [17]; cited from earlier work.
In assay [3] the test system is TRPV3. The note with it: cited from earlier work.
The test system of assay [4] is TRPV4. Also noted: method as in PMID 30108138, PMID 27160770. The note with it: ref [16], [42]; cited from earlier work.
For assay [5], the system named is TRPV1. Further details: method as in PMID 30108138, PMID 27160770. The note with it: ref [16], [42]; cited from earlier work.
Assay [6] relates to TRPV2. Also noted: method as in PMID 33876725. The note with it: ref [18]; read-out: IC50 TRPV2 currents; cited from earlier work.
The subject of assay [7] is TRPM8. Further details: method as in PMID 33876725. To be noted: ref [18]; read-out: IC50 TRPM8 currents; cited from earlier work.

Like-named read-outs stand apart in the source and are kept apart here.

For `NCCOB(c1ccccc1)c1ccccc1` [2-APB, 2-aminoethoxydiphenyl borate], in assay [1], the single-channel conductance entry is listed as “about 170.9 ± 4.8 pS” and the single-channel open probability was found to be 0.75.
For forsythoside B, the “inhibition of TRPA1 currents” value in assay [2] was “weak inhibition”. In addition, the concentration for half-maximal inhibition (IC50) in assay [3] (ref [17], read-out: IC50 TRPV3 currents) is around 6.7 µM.
As for `COc1ccc2ccc(=O)oc2c1CC=C(C)C` [osthole], the “inhibition of TRPV4” value in assay [4] was “weak inhibition”. Also, the “inhibition of TRPV1” value in assay [5] is listed as “weak inhibition”. Moreover, in assay [3] (ref [16], [42], read-out: IC50 TRPV3), the IC50 was around 37 µM.
As to `CCCCOc1ccc(C(=O)CCN2CCCCC2)cc1` [dyclonine], the half-maximal inhibitory concentration (IC50) in assay [6] is 31 µM; in assay [3] (ref [18], read-out: IC50 TRPV3 currents), around 3.2 µM; in assay [7], 82 µM.

For orientation: IC50 means the concentration needed to halve the response being measured.

Source of the values: PMC10828444, “Selective inhibition of overactive warmth-sensitive Ca^2+-permeable TRPV3 channels by antispasmodic agent flopropione for alleviation of skin inflammation” (The Journal of Biological Chemistry, 2023).
